Assay results from ChEMBL document CHEMBL1909046, “DrugMatrix in vitro pharmacology data”.

Molecular target: T1, D(4) dopamine receptor (Homo sapiens, UniProt P21917)
T1 sequence (P21917 whole entry): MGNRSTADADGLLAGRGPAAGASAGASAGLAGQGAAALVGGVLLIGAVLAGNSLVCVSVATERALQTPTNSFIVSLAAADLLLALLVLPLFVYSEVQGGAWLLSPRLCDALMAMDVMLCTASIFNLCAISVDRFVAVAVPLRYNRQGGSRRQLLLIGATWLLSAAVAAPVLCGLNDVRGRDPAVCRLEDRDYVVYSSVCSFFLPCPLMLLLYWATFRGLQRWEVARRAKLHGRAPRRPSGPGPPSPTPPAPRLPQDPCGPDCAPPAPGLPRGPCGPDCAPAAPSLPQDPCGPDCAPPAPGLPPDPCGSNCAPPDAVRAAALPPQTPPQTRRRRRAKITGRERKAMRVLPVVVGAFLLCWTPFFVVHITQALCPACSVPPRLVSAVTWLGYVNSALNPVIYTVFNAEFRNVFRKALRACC
Assay: DRUGMATRIX: Dopamine D4.2 radioligand binding (ligand: [3H] Spiperone)
Type: cell membranes, CHO-K1, Membrane
Conditions: cho-k1; Not Active = under 50% inhibition at 10 µM

Structure (SMILES) | IC50
O=c1[nH]cnc2c1ncn2[C@H]1CC[C@@H](CO)O1 [DIDANOSINE] | Not Active
CC(C)(c1ccc(O)cc1)c1ccc(O)cc1 [BISPHENOL A] | Not Active
ClC1=C(Cl)[C@]2(Cl)[C@@H]3[C@@H]4C[C@@H]([C@H]5O[C@@H]45)[C@@H]3[C@@]1(Cl)C2(Cl)Cl [DIELDRIN] | Not Active
c1ccc(Cn2ccnc2)cc1 | Not Active
C[C@]12CC[C@@H](O)C[C@@H]1CC[C@@H]1[C@@H]2CC[C@]2(C)C(=O)CC[C@@H]12 [ANDROSTERONE] | Not Active

Molecular target: D(1A) dopamine receptor (Homo sapiens, UniProt P21728)
Sequence (P21728 whole entry): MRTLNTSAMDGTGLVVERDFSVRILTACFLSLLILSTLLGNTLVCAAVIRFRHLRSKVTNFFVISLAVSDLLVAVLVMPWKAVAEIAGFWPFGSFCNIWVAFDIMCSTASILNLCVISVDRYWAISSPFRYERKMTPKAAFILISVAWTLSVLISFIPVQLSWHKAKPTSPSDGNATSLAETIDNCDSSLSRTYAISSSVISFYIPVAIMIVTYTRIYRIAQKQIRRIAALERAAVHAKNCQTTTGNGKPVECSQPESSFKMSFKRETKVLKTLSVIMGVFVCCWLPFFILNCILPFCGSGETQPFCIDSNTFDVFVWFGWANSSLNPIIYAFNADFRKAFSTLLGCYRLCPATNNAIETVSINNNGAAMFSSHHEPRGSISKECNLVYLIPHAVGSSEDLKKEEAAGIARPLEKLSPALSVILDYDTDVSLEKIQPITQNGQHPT
Assay: DRUGMATRIX: Dopamine D1 radioligand binding (ligand: [3H] SCH-23390)
Type: cell membranes, CHO, Membrane
Conditions: cho; Not Active = under 50% inhibition at 10 µM

Structure (SMILES) | IC50
O=c1[nH]cnc2c1ncn2[C@H]1CC[C@@H](CO)O1 [DIDANOSINE] | Not Active
CC(C)(c1ccc(O)cc1)c1ccc(O)cc1 [BISPHENOL A] | Not Active
ClC1=C(Cl)[C@]2(Cl)[C@@H]3[C@@H]4C[C@@H]([C@H]5O[C@@H]45)[C@@H]3[C@@]1(Cl)C2(Cl)Cl [DIELDRIN] | Not Active
c1ccc(Cn2ccnc2)cc1 | Not Active
C[C@]12CC[C@@H](O)C[C@@H]1CC[C@@H]1[C@@H]2CC[C@]2(C)C(=O)CC[C@@H]12 [ANDROSTERONE] | Not Active

Molecular target: Receptor tyrosine-protein kinase erbB-2 (Homo sapiens, UniProt P04626);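 note: inhibition of HER2 kinase enzyme activity, measured with Poly(Glu:Tyr) as the phosphorylation substrate; in other assays of this panel Not Active means under 50% inhibition at 10 µM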
Sequence (P04626 whole entry): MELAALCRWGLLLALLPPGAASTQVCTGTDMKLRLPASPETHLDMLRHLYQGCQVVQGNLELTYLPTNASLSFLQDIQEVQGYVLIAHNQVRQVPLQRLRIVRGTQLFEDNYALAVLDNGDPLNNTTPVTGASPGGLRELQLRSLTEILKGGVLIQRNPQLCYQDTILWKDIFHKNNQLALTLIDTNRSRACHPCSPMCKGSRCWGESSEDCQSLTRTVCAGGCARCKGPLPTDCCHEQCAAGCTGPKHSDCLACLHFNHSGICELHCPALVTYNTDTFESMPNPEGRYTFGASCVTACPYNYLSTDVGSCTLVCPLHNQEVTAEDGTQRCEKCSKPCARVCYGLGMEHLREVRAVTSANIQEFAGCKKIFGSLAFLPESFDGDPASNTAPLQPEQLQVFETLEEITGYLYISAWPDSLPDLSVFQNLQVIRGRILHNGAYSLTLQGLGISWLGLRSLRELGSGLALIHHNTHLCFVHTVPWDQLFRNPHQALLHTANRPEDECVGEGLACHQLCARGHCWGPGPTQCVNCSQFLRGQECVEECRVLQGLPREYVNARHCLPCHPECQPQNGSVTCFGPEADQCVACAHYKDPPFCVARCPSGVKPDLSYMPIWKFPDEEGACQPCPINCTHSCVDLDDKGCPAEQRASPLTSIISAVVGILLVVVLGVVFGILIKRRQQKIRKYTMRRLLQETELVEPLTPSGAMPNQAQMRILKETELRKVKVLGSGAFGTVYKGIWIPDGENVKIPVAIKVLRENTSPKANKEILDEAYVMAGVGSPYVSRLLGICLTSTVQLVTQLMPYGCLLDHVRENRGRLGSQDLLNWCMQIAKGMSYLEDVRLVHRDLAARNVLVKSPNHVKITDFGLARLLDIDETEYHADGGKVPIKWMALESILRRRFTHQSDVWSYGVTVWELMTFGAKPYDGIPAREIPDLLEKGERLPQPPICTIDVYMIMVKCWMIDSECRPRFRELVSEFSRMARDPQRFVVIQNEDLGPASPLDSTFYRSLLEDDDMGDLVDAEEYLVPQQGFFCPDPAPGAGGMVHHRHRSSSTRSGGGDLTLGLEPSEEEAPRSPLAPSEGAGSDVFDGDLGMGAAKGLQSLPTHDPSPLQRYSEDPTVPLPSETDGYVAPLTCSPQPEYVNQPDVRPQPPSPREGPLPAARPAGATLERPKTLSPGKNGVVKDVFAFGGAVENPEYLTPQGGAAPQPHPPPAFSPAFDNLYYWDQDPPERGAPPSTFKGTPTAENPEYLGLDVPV
Type: cell-based
Conditions: insect cells

Structure (SMILES) | IC50
O=c1[nH]cnc2c1ncn2[C@H]1CC[C@@H](CO)O1 [DIDANOSINE] | Not Active
CC(C)(c1ccc(O)cc1)c1ccc(O)cc1 [BISPHENOL A] | Not Active
ClC1=C(Cl)[C@]2(Cl)[C@@H]3[C@@H]4C[C@@H]([C@H]5O[C@@H]45)[C@@H]3[C@@]1(Cl)C2(Cl)Cl [DIELDRIN] | Not Active
c1ccc(Cn2ccnc2)cc1 | Not Active
C[C@]12CC[C@@H](O)C[C@@H]1CC[C@@H]1[C@@H]2CC[C@]2(C)C(=O)CC[C@@H]12 [ANDROSTERONE] | Not Active

Molecular target: T2, B2 bradykinin receptor (Homo sapiens, UniProt P30411); note: in other assays of this panel Not Active means under 50% inhibition at 10 µM
T2 sequence (P30411 whole entry): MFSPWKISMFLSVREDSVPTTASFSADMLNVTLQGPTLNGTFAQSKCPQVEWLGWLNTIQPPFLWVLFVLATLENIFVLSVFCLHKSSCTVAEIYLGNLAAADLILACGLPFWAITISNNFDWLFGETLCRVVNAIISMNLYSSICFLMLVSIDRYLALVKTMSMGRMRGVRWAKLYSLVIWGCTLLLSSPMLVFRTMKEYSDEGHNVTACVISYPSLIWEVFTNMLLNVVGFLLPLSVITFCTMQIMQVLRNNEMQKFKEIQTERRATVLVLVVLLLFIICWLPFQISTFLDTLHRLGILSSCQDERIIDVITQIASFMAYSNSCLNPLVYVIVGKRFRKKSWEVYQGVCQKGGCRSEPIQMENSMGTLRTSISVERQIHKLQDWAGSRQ
Type: cell membranes, Membrane
Conditions: chem-1

Structure (SMILES) | IC50
O=c1[nH]cnc2c1ncn2[C@H]1CC[C@@H](CO)O1 [DIDANOSINE] | Not Active
CC(C)(c1ccc(O)cc1)c1ccc(O)cc1 [BISPHENOL A] | Not Active
ClC1=C(Cl)[C@]2(Cl)[C@@H]3[C@@H]4C[C@@H]([C@H]5O[C@@H]45)[C@@H]3[C@@]1(Cl)C2(Cl)Cl [DIELDRIN] | Not Active
c1ccc(Cn2ccnc2)cc1 | Not Active
C[C@]12CC[C@@H](O)C[C@@H]1CC[C@@H]1[C@@H]2CC[C@]2(C)C(=O)CC[C@@H]12 [ANDROSTERONE] | Not Active

Molecular target: T3, Receptor-type tyrosine-protein phosphatase C (Homo sapiens, UniProt P08575);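 note: inhibition of CD45 enzyme activity measured using DiFMUP as substrate; in other assays of this panel Not Active means under 50% inhibition at 10 µM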
T3 sequence (P08575 whole entry): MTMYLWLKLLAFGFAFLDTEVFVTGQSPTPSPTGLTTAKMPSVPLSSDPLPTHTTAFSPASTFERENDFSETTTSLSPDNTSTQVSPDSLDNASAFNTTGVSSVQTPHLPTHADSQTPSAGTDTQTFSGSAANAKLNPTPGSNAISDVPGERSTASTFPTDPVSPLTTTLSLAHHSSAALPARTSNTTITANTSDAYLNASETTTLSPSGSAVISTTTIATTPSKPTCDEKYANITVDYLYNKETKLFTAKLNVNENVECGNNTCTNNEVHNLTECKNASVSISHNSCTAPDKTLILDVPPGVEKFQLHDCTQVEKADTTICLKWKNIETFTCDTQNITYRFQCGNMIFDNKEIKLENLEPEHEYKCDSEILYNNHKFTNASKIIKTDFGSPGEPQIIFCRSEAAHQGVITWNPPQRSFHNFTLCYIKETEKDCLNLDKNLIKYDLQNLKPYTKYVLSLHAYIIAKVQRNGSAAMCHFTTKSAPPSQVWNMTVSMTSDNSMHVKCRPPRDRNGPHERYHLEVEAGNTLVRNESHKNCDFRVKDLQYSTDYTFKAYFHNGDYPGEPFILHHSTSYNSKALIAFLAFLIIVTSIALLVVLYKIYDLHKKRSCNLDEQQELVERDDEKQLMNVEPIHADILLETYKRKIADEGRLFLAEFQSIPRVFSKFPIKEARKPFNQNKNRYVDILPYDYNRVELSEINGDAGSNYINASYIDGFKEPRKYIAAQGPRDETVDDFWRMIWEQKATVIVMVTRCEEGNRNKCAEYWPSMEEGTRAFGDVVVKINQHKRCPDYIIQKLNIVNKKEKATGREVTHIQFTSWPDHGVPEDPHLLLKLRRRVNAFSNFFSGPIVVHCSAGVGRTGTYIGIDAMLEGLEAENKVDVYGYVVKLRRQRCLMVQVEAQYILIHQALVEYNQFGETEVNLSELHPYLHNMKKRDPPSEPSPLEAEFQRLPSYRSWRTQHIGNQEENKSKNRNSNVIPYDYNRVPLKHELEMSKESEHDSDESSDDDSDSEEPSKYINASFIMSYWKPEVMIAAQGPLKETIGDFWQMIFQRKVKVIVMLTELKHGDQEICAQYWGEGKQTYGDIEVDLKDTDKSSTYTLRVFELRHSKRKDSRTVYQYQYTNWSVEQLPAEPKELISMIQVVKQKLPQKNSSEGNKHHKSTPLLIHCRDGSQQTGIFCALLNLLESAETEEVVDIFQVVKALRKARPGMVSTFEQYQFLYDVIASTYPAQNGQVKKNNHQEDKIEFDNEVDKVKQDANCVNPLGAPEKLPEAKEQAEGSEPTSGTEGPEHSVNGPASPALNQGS
Parameters: species or system Escherichia coli
Conditions: not given

Structure (SMILES) | IC50
O=c1[nH]cnc2c1ncn2[C@H]1CC[C@@H](CO)O1 [DIDANOSINE] | Not Active
CC(C)(c1ccc(O)cc1)c1ccc(O)cc1 [BISPHENOL A] | Not Active
ClC1=C(Cl)[C@]2(Cl)[C@@H]3[C@@H]4C[C@@H]([C@H]5O[C@@H]45)[C@@H]3[C@@]1(Cl)C2(Cl)Cl [DIELDRIN] | Not Active
c1ccc(Cn2ccnc2)cc1 | Not Active
C[C@]12CC[C@@H](O)C[C@@H]1CC[C@@H]1[C@@H]2CC[C@]2(C)C(=O)CC[C@@H]12 [ANDROSTERONE] | Not Active

Molecular target: T4, Muscarinic acetylcholine receptor M2 (Homo sapiens, UniProt P08172); note: in other assays of this panel Not Active means under 50% inhibition at 10 µM
T4 sequence (P08172 whole entry): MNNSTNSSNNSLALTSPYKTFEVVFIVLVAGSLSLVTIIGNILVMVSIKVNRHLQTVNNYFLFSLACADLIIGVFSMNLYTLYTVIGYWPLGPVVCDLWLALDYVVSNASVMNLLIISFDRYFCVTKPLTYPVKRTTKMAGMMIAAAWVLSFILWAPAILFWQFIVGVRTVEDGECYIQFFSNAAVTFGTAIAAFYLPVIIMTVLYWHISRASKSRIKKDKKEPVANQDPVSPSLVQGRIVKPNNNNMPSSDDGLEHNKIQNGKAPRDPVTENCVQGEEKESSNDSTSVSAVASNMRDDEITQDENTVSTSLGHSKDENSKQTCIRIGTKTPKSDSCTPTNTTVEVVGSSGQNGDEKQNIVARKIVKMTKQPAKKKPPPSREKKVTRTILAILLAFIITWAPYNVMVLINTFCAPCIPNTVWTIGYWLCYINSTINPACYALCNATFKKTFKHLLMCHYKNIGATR
Type: cell membranes, CHO-K1, Membrane
Conditions: cho-k1

Structure (SMILES) | IC50
O=c1[nH]cnc2c1ncn2[C@H]1CC[C@@H](CO)O1 [DIDANOSINE] | Not Active
CC(C)(c1ccc(O)cc1)c1ccc(O)cc1 [BISPHENOL A] | Not Active
ClC1=C(Cl)[C@]2(Cl)[C@@H]3[C@@H]4C[C@@H]([C@H]5O[C@@H]45)[C@@H]3[C@@]1(Cl)C2(Cl)Cl [DIELDRIN] | Not Active
c1ccc(Cn2ccnc2)cc1 | Not Active
C[C@]12CC[C@@H](O)C[C@@H]1CC[C@@H]1[C@@H]2CC[C@]2(C)C(=O)CC[C@@H]12 [ANDROSTERONE] | Not Active

Test system: not listed separately
Assay: DRUGMATRIX: Sigma2 radioligand binding (ligand: [3H] Ifenprodil)
Type: cell membranes, Rattus norvegicus, Wistar, Brain, Membrane
Conditions: Not Active = under 50% inhibition at 10 µM

Structure (SMILES) | IC50 | Ki
O=c1[nH]cnc2c1ncn2[C@H]1CC[C@@H](CO)O1 [DIDANOSINE] | Not Active | Not Active
CC(C)(c1ccc(O)cc1)c1ccc(O)cc1 [BISPHENOL A] | Not Active | Not Active
ClC1=C(Cl)[C@]2(Cl)[C@@H]3[C@@H]4C[C@@H]([C@H]5O[C@@H]45)[C@@H]3[C@@]1(Cl)C2(Cl)Cl [DIELDRIN] | Not Active | Not Active
c1ccc(Cn2ccnc2)cc1 | Not Active | Not Active
C[C@]12CC[C@@H](O)C[C@@H]1CC[C@@H]1[C@@H]2CC[C@]2(C)C(=O)CC[C@@H]12 [ANDROSTERONE] | Not Active | Not Active
